Patent US20260199213A1, “PEPTIDE HAVING ACTIVITY OF IMPROVING STATE OF SKIN, AND USE THEREOF” (CAREGEN CO., LTD., priority 2022, published 2026)

Key:
Type in all cases: cell-based
[1] = test system: elastin; assay: Elastin expression by RT-PCR in NIH3T3 cells
Experimental: In this example, the aim was to confirm the effect of the peptide according to an example on improving endogenous skin aging, including improvement of wrinkles and enhancement of elasticity, etc., by evaluating the expression levels of collagen type 1 (Col1a1), fibronectin, elastin, and hyaluronic acid, which are known components of the dermis.
Specifically, NIH3T3 cells were seeded in a 6-well plate at a density of 3×10^5 cells/well and cultured for 24 hours. Next, the cells were washed once with serum-free DMEM media, and 10 μM, 50 μM or 1000 μM of a peptide consisting of an amino acid sequence of SEQ ID NO: 1 was dispensed into 1 mL of the serum-free media, and cultured in a CO2 incubator at 37° C. for 24 hours. Next, the culture was washed twice with PBS, and RNA was isolated from the culture using easy blue (iNtRON, Cat. No.: 17061, Korea). Next, using an RT kit (Enzynomics, Cat. NO.: RT200, Korea), the isolated RNA was reverse transcribed to synthesize the respective cDNA. Next, using the synthesized 1 ug cDNA, primers for Colla1, fibronectin, or elastin, and a PCR kit (Enzynomics, Cat. No.: P581T, Korea), polymerase chain reaction (PCR) was performed. Meanwhile, in this example, an untreated group was used as a control group, and a group to which […] was added was used as a positive control group, the nucleotide sequences of the primers used in this example are shown in Table 2 below.
In this example, the aim was to more specifically compare the effects of peptides according to an embodiment on improving intrinsic skin aging. To this end, a peptide consisting of an amino acid sequence of SEQ ID NO: 2, 3, or 4 having a sequence similar to a peptide according to an embodiment was set as a comparison group, and the expression levels of fibronectin and elastin were evaluated and compared in the same manner as in Example 2-1. […]

[2] = test system: sirtuin-1 (SIRT-1); assay: SIRT-1 expression by RT-PCR in HaCaT cells; details: 10 μM, 50 μM or 1000 μM peptide, 24 hours
Experimental: In this example, the aim was to confirm the effect of the peptides according to an example on strengthening the skin barrier, by evaluating the expression levels of sirtuin-1 (SIRT-1) or aquaporin-3 (AQP3).
Specifically, HaCaT cells were seeded in a 6-well plate at a density of 3×10^5 cells/well and cultured for 24 hours. Next, the cells were washed once with serum-free DMEM media, and 10 μM, 50 μM or 1000 μM of the peptide consisting of the amino acid sequence of SEQ ID NO: 1 was dispensed into 1 mL of the serum-free media, and cultured in a CO2 incubator at 37° C. for 24 hours. Next, the culture was washed twice with PBS, and RNA was isolated from the culture using easy blue (iNtRON, Cat. No.: 17061, Korea). Next, using an RT kit (Enzynomics, Cat. NO.: RT200, Korea), the isolated RNA was reverse transcribed to synthesize the respective cDNA. Next, using the synthesized 1 ug cDNA, primers for SIRT-1 or AQP3, and a PCR kit (Enzynomics, Cat. No.: P581T, Korea), polymerase chain reaction (PCR) was performed. Meanwhile, in this example, an untreated group was used as the control group, and a group to which EGF was added was used as a positive control group, the nucleotide sequences of the primers used in this example are shown in Table 3 below.

[3] = test system: reactive oxygen species in HaCaT cells; assay: Reactive oxygen species increased by ultraviolet rays in HaCaT cells (DCF-DA, flow cytometry)
Experimental: In this example, the aim was to confirm the effect of the peptide according to an embodiment on the antioxidant effect in damaged skin, by evaluating the change in the level of reactive oxygen species in skin cells increased by ultraviolet irradiation.
Specifically, NIH3T3 cells or HaCaT cells were seeded in a 6-well plate at a density of 5×10^5 cells/well and cultured for 24 hours. Next, the cells were washed once with serum-free DMEM media, and 10 μM, 50 μM or 1000 μM of the peptide consisting of the amino acid sequence of SEQ ID NO: 1 was dispensed into 1 mL of the serum-free media, and cultured in a CO2 incubator at 37° C. for 1 hour. Next, the above culture was transferred to an e-tube, mixed with 1 ml of PBS, and dispensed into a well plate. Next, using a UV irradiator (VILBER LOURMAT, Cat No.: 3102-BSU, France), 6 J/cm^2 ultraviolet rays were irradiated to NIH3T3 cells, and 15 mJ/cm^2 ultraviolet rays were irradiated to HaCaT cells. Next, the PBS in the well plate was removed, 900 μL of the culture medium in which the peptides were dispensed was added, and the plate was cultured in a CO2 incubator at 37° C. for 24 hours. The culture was then treated with DCFG-DA (2′,7′-dichlorofluorescin diacetate), wrapped in foil, and cultured in a CO2 incubator at 37° C. for 30 minutes. Next, the culture was washed twice with PBS and treated with 500 μL of 1× trypsin/EDTA to acquired cells, which were then centrifuged. After washing the centrifuged cells with PBS, FL1 fluorescence values were measured through flow cytometry (FACS, BD, USA). […]
In this example, the aim was to compare in more detail, the effect of peptides according to an embodiment on the antioxidant effect in damaged skin cells. To this end, the peptide consisting of the amino acid sequence of SEQ ID NO: 2, 3, or 4 having a sequence similar to the peptide according to an embodiment was set as a comparison group, and the level of reactive oxygen species in skin cells increased by ultraviolet irradiation of HaCaT cells was evaluated and compared in the same manner as in Example 4-1. […]

For GPRGDP [SEQ ID NO: 1], the expression of elastin ([1]; 10 μM, 50 μM or 1000 μM peptide, 24 hours, PCR, vs untreated group) was “increased”, the “expression of elastin (Example 2-2)” value ([1]; comparison experiment, FIG. 5 and FIG. 6) was “increased” and the “elastin expression effect compared to the comparison group” value ([1]; vs peptides of SEQ ID NO: 2, 3, or 4 (50 μM, 100 μM)) was “superior”. The “expression of skin barrier factor SIRT-1” value [2] was “increases”, the “reactive oxygen species reducing effect compared to the comparison group” value ([3]; HaCaT cells, vs peptides of SEQ ID NO: 2, 3, or 4 (50 μM, 100 μM)) was “superior” and the “level of reactive oxygen species increased by ultraviolet irradiation” value ([3]; keratinocytes (HaCaT), 15 mJ/cm^2 UV, 10 μM, 50 μM or 1000 μM peptide, 24 hours) was “reduced”. The “level of reactive oxygen species increased by ultraviolet irradiation (Example 4-2)” value ([3]; keratinocytes (HaCaT), comparison experiment, FIG. 11) was “reduced”.
